Measured values reported in ChEMBL document CHEMBL1129315, “Studies on selectin blockers. 2. Novel selectin blocker as potential therapeutics for inflammatory disorders” (J Med Chem, 1996).

Assays:
E-selectin = target: T1, E-selectin (Homo sapiens, UniProt P16581); test: Inhibitory concentration against blocking of E-selectin during migration of inflammatory cells to inflammatory site
T1 sequence (P16581 whole entry): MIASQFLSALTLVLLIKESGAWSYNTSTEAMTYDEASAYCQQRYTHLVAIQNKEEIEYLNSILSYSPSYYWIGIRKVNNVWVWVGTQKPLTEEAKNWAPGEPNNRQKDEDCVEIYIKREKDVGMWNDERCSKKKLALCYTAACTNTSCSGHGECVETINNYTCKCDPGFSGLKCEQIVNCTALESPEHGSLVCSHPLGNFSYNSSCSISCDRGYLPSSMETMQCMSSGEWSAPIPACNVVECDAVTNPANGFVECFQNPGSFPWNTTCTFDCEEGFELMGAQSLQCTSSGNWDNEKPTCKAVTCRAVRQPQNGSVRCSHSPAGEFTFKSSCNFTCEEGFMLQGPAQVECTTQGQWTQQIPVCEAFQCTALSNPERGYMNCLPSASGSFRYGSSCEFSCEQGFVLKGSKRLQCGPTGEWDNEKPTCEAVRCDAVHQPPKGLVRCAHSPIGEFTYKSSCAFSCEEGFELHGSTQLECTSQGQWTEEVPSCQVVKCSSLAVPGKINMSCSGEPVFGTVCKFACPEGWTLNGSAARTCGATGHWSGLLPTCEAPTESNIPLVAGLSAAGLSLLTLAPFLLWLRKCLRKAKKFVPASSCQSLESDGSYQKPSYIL

L-selectin = target: T2, L-selectin (Homo sapiens, UniProt P14151); test: Inhibitory concentration against blocking of Selectin L during migration of inflammatory cells to inflammatory site
T2 sequence (P14151 whole entry): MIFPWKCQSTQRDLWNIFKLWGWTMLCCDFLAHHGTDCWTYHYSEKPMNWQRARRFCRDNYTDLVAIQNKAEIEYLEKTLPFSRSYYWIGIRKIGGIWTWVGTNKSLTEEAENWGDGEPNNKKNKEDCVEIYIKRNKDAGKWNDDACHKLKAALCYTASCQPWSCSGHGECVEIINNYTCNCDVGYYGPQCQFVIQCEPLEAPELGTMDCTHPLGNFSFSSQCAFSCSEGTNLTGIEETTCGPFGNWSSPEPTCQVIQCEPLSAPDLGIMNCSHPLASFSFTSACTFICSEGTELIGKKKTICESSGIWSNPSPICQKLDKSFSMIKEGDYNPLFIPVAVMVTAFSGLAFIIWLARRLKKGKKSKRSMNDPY

P-selectin = target: T3, P-selectin (Homo sapiens, UniProt P16109); test: Inhibitory concentration against blocking of Selectin P during migration of inflammatory cells to inflammatory site
T3 sequence (P16109 whole entry): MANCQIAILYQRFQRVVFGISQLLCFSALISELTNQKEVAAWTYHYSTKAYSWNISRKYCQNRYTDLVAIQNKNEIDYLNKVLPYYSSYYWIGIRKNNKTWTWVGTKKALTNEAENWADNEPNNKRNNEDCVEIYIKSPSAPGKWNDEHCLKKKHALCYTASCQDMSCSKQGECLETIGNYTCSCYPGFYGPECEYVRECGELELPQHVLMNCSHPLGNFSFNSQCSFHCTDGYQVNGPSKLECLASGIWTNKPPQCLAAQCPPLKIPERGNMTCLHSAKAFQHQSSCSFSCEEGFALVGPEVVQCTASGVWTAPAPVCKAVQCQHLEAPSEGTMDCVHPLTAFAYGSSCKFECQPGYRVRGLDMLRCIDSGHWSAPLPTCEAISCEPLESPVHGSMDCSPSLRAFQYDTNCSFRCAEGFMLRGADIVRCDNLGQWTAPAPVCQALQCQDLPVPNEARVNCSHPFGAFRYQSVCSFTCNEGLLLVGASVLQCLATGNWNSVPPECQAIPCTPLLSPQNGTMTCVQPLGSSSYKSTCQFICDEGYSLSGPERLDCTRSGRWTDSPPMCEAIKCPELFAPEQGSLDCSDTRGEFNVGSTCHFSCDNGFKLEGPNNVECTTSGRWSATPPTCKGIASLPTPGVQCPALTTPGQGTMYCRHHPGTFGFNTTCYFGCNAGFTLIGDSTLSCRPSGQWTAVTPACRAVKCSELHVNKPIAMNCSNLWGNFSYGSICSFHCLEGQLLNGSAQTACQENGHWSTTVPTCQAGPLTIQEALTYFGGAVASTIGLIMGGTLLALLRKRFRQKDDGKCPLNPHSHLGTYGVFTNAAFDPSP

| SMILES | IC50 (E-selectin) [µM] | IC50 (L-selectin) [µM] | IC50 (P-selectin) [µM] |
| --- | --- | --- | --- |
| CC1OC(OC2C(O)COC(CO)C2OC2OC(CO)C(O)C(OS(=O)(=O)O)C2O)C(O)C(O)C1O (stereo not given) | > 1000 | > 1000 | 300 |
| CC(=O)N[C@H]1[C@H]([C@H](O)[C@H](O)CO)O[C@@](O[C@H]2[C@@H](O)[C@@H](CO)O[C@@H](O[C@@H]([C@H](O[C@@H]3O[C@@H](C)[C@@H](O)[C@@H](O)[C@@H]3O)[C@H](C=O)NC(C)=O)[C@H](O)CO)[C@@H]2O)(C(=O)O)C[C@@H]1O [SIALYL LEWIS X] |  | > 1000 | > 1000 |
